Measured values taken from patent US20210329924A1, “METAL-BASED ANTIMICROBIAL COMPOSITION AND METHOD OF USING” (Microbonds Inc., priority 2020, published 2021).

Experiments:
[1] = tested on: E. Coli (OD600 1.5); assay: Antimicrobial kill efficacy test on treated substrate (E. Coli); type: cell-based; settings: 1 hr; for Efficacy test Pass: 20 C.
Description: The 100000 ppm stock solution is subsequently diluted to the silver metal loading concentrations ranging from 3000 ppm down to 10 ppm, as shown in table 1 (the final usage concentration). The solutions are then applied onto a standard fabric substrate, such as white cotton textile and tested for various characteristics. The substrates, after being treated with the solution, are coated with standardized microbes, such as E. Coli or MRSA and tested for antimicrobial kill efficacy. The treated substrates are subjected to a wash test to determine if the silver metal still remains adhered to the fabric after multiple washes. For high silver metal ppm fabrics, it is easy to determine if the color of the stain fades or washes out over time. For low-ppm, non-stained items, the substrate is subjected to a digestion method to calculate the silver concentration per unit area after a number of washes to determine if the silver is remaining stable or is washing out.

[2] = tested on: MRSA (Staphylococcus); assay: Antimicrobial kill efficacy test on treated substrate (MRSA); type: cell-based; settings: white cotton duvet, 60 C.-100 C., 1 hr
[3] = 10 ppm silver metal loading, white cotton fabric
[4] = 20 ppm silver metal loading, white cotton fabric
[5] = 100 ppm silver metal loading, white cotton fabric
[6] = 500 ppm silver metal loading, white cotton fabric
[7] = 1000 ppm silver metal loading, white cotton fabric

## [Ag(NH3)2]-carbonate [Example 1]
[1]; [3]
  Efficacy test Pass?: No
[1]; [4]
  Efficacy test Pass?: Yes
[1]; [5]
  Efficacy test Pass?: Yes
[1]; [6]
  Efficacy test Pass?: Yes
[1]; [7]
  Efficacy test Pass?: Yes

## [Ag(NH3)2]-fluoride [Example 4]
[1]; 10 ppm silver metal loading, white Coolmax polyester fabric
  Efficacy test Pass: No
[1]; 20 ppm silver metal loading, white Coolmax polyester fabric
  Efficacy test Pass: Yes
[1]; 100 ppm silver metal loading, white Coolmax polyester fabric
  Efficacy test Pass: Yes
[1]; 500 ppm silver metal loading, white Coolmax polyester fabric
  Efficacy test Pass: Yes
[1]; 1000 ppm silver metal loading, white Coolmax polyester fabric
  Efficacy test Pass: Yes
[2]; 10 ppm copper metal loading
  Efficacy test Pass: Yes
[2]; 20 ppm copper metal loading
  Efficacy test Pass: Yes
[2]; 100 ppm copper metal loading
  Efficacy test Pass: Yes
[2]; 500 ppm copper metal loading
  Efficacy test Pass: Yes
[2]; 1000 ppm copper metal loading
  Efficacy test Pass: Yes

## [Ag(NH3)2]-formate [Example 5]
[1]; 10 ppm silver metal loading, dark Coolmax polyester fabric
  Efficacy test Pass: No
[1]; 20 ppm silver metal loading, dark Coolmax polyester fabric
  Efficacy test Pass: Yes
[1]; 100 ppm silver metal loading, dark Coolmax polyester fabric
  Efficacy test Pass: Yes
[1]; 500 ppm silver metal loading, dark Coolmax polyester fabric
  Efficacy test Pass: Yes
[1]; 1000 ppm silver metal loading, dark Coolmax polyester fabric
  Efficacy test Pass: Yes

## [Ag(NH3)2]-formate [Example 6]
[1]; 10 ppm silver metal loading, Substrate = Dark Coolmax polyester fabric / Hand (Example 6: on skin)
  Efficacy test Pass: No
[1]; 20 ppm silver metal loading, Substrate = Dark Coolmax polyester fabric / Hand (Example 6: on skin)
  Efficacy test Pass: Yes
[1]; 100 ppm silver metal loading, Substrate = Dark Coolmax polyester fabric / Hand (Example 6: on skin)
  Efficacy test Pass: Yes
[1]; 500 ppm silver metal loading, Substrate = Dark Coolmax polyester fabric / Hand (Example 6: on skin)
  Efficacy test Pass: Yes
[1]; 1000 ppm silver metal loading, Substrate = Dark Coolmax polyester fabric / Hand (Example 6: on skin)
  Efficacy test Pass: Yes

## [Ag(NH3)2]-oxalate [Example 3]
[1]; [3]
  Efficacy test Pass: No
[1]; [4]
  Efficacy test Pass: Yes
[1]; [5]
  Efficacy test Pass: Yes
[1]; [6]
  Efficacy test Pass: Yes
[1]; [7]
  Efficacy test Pass: Yes

## [Cu(NH3)4(H2O)n]SO4 [Example 8]
[2]; 10 ppm zinc metal loading
  Efficacy test Pass: No
[2]; 20 ppm zinc metal loading
  Efficacy test Pass: Yes
[2]; 100 ppm zinc metal loading
  Efficacy test Pass: Yes
[2]; 500 ppm zinc metal loading
  Efficacy test Pass: Yes
[2]; 1000 ppm zinc metal loading
  Efficacy test Pass: Yes
